According to article PMC11247503 (Journal of Medicinal Chemistry, 2024):
Structures can show the parent of a compound that is named as a salt.

The molecules below were run against T1, mouse Spns2 (Mus musculus, UniProt Q91VM4) (assay: HeLa cell S1P release assay (Spns2 inhibition)). Settings: 1 μM inhibitor; HeLa cells; S1P in media by LC-MS/MS.
T1 construct: expressed in transfected cells; host or cells: HeLa cells (G418-resistant pools)
T1 sequence (Q91VM4 1-549): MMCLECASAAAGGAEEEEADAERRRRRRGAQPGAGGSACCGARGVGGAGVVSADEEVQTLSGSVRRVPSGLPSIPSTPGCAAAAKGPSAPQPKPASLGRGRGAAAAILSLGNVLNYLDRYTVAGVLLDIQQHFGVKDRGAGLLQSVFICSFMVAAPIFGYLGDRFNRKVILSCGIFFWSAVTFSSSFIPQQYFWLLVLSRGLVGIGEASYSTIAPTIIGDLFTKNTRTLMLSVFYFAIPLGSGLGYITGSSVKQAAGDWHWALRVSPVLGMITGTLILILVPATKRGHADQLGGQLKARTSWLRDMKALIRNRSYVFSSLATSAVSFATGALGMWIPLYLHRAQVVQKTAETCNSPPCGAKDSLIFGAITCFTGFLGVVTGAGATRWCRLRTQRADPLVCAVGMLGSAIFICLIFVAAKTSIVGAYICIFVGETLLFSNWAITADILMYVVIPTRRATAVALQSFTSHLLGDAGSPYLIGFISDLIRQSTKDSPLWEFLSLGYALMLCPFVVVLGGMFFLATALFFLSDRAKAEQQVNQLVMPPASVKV
Type: cell-based
Experimental: With a library of analogs of SLB1122168 containing phenylurea, phenylcarbamate, and benzamide as bioisostere of the benzoxazole, we investigated their potential in inhibiting S1P transport using a HeLa cell assay.[36]−[38],[43] Briefly, in this assay, Spns2 is overexpressed whereas the S1P-degrading enzymes (lyase or phosphatases) were blocked with inhibitors.[44],[45] Inhibition of S1P transport is determined by measuring the amount of S1P in the buffer using LC-MS.
This assay was conducted as reported by Kharel et al.[43] Briefly, compounds were assessed in a HeLa cell assay at a 1 μM test concentration, unless noted otherwise. HeLa cells were transfected with a pcDNA3.1 plasmid encoding mouse Spns2, and pools of cells resistant to G418 were selected. S1P catabolic pathways were suppressed by the addition of 4-deoxypyridoxine (1 mM), NaF (2 mM), and Na3VO4 (0.2 mM). After growing cells to near confluence on 12-well tissue culture dishes, growth media was removed, inhibitors were introduced in release media (serum free medium containing 0.2% fatty acid free BSA), and the cells were incubated for 16–18 h at 37 °C. The BSA with bound S1P was concentrated from the release media by TFA-driven precipitation after addition of the d7-S1P internal standard, the S1P extracted from the protein pellet, and quantified by LC-MS/MS. Lower levels of S1P release into the media indicated greater degrees of Spns2 inhibition. Inhibition is reported as the percent decrease in S1P release relative to the control where no inhibitor was introduced.

Row | Molecule | %Inhib. (Spns2 inhibition, percent decrease in S1P secretion relative to control) [%]
1 | 2-Aminoethyl (4-Decylphenyl)carbamate Hydrochloride [8a] | 44 ± 7

Same assay, conditions: 1 μM inhibitor; HeLa cells; S1P in media by LC-MS/MS; 1 µM

Row | %Inhib. (Spns2 inhibition, percent decrease in S1P secretion relative to control) [%] | Molecule
2 | 66 ± 1 | CCCCCCCCCCc1ccc(C(=O)N[C@@H]2CCNC2)cc1.Cl [(R)-4c, (R)-4-Decyl-N-(pyrrolidin-3-yl)benzamide Hydrochloride]

Same assay, conditions: HeLa, 0.3 μM inhibitor (Figure 5); HeLa cells; read-out: % Inhibition, tail homologation study

Row | inhibition at 0.3 µM [%] | Molecule
3 | 19 ± 2 | CCCCCCc1ccc(NC(=O)N2CCNCC2)cc1 [20a, N-(4-Hexylphenyl)piperazine-1-carboxamide Hydrogen Chloride]
4 | 28 ± 5 | CCCCCCCc1ccc(NC(=O)N2CCNCC2)cc1 [20b, N-(4-Heptylphenyl)piperazine-1-carboxamide Hydrogen Chloride]
5 | 48 ± 7 | CCCCCCCCc1ccc(NC(=O)N2CCNCC2)cc1 [20c, N-(4-Octylphenyl)piperazine-1-carboxamide Hydrogen Chloride]
6 | 61 ± 4 | CCCCCCCCCc1ccc(NC(=O)N2CCNCC2)cc1 [20d, N-(4-Nonylphenyl)piperazine-1-carboxamide Hydrogen Chloride]
7 | 76 ± 5 | CCCCCCCCCCCc1ccc(NC(=O)N2CCNCC2)cc1 [20e, N-(4-Undecylphenyl)piperazine-1-carboxamide Hydrogen Chloride]
8 | 57 ± 1 | CCCCCCCCCCCCc1ccc(NC(=O)N2CCNCC2)cc1 [20f, N-(4-Dodecylphenyl)piperazine-1-carboxamide Hydrogen Chloride]
9 | 27 ± 12 | CCCCCCCCCCCCCc1ccc(NC(=O)N2CCNCC2)cc1 [20g, N-(4-Tridecylphenyl)piperazine-1-carboxamide Hydrogen Chloride]

Same assay, conditions: HeLa, 1 μM inhibitor; HeLa cells; S1P in media by LC-MS/MS; read-out: %Inhib. (Spns2 inhibition, percent decrease in S1P secretion relative to control)

Row | Molecule | inhibition at 1 µM [%]
10 | CCCCCCCCCCc1ccc(C(=O)N2CCNCC2C)cc1 (racemic) [(±)-4j, (4-Decylphenyl)(2-methylpiperazin-1-yl)methanone Hydrochloride] | 61 ± 2
11 | CCCCCCCCCCc1ccc(C(=O)NCCCN)cc1 [4a, N-(3-Aminopropyl)-4-decylbenzamide Hydrochloride] | 39 ± 9
12 | CCCCCCCCCCc1ccc(C(=O)NC2CCNCC2)cc1 [4g, 4-Decyl-N-(piperidin-4-yl)benzamide Hydrochloride] | 24 ± 2
13 | CCCCCCCCCCc1ccc(C(=O)N2CCNCC2)cc1 [4h, (4-Decylphenyl)(piperazin-1-yl)methanone Hydrochloride] | 68 ± 5
14 | CCCCCCCCCCc1ccc(C(=O)N2CC3CCC(C2)N3)cc1 [4k, (3,8-Diazabicyclo[3.2.1]octan-3-yl)(4-decylphenyl)methanone Hydrochloride] | 0
15 | CCCCCCCCCCc1ccc(C(=O)N2CC3CC2CN3)cc1 (stereo not drawn) [4l, (2,5-Diazabicyclo[2.2.1]heptan-2-yl)(4-decylphenyl)methanone Hydrochloride] | 25 ± 2
16 | CCCCCCCCCCc1ccc(NC(=O)OC2CCNCC2)cc1 [8f, Piperidin-4-yl (4-Decylphenyl)carbamate Hydrochloride] | 51
17 | CCCCCCCCCCc1ccc(NC(=O)NCCCN)cc1 [11a, 1-(3-Aminopropyl)-3-(4-decylphenyl)urea Hydrochloride] | 53
18 | CCCCCCCCCCc1ccc(NC(=O)NC2CNC2)cc1 [11b, 1-(Azetidin-3-yl)-3-(4-decylphenyl)urea 2,2,2-Trifluoroacetate] | 59 ± 1
19 | CCCCCCCCCCc1ccc(NC(=O)N2CCC(N)CC2)cc1 [11g, 4-Amino-N-(4-decylphenyl)piperidine-1-carboxamide Hydrochloride] | 59 ± 2
20 | CCCCCCCCCCc1ccc(NC(=O)NC2CCNCC2)cc1 [11h, 1-(4-Decylphenyl)-3-(piperidin-4-yl)urea Hydrochloride] | 34 ± 9
21 | CCCCCCCCCCc1ccc(NC(=O)N2CC3CC2CN3)cc1 (stereo not drawn) [11j, N-(4-Decylphenyl)-2,5-diazabicyclo[2.2.1]heptane-2-carboxamide Hydrochloride] | 35
22 | CCCCCCCCCCc1ccc(NC(=O)N2CC3CCC(C2)N3)cc1 [11k, N-(4-Decylphenyl)-3,8-diazabicyclo[3.2.1]octane-3-carboxamide Hydrochloride] | 77
23 | CCCCCCCCCCc1ccc(NC(=O)N2CCCNCC2)cc1 [11m, N-(4-Decylphenyl)-1,4-diazepane-1-carboxamide Hydrochloride] | 72 ± 1
24 | CCCCCCCCCCc1ccc(C(=O)N(C)CCCN)cc1 [13a, N-(3-Aminopropyl)-4-decyl-N-methylbenzamide Hydrochloride] | 39 ± 4
25 | CCCCCCCCCCc1ccc(N(C)C(=O)N2CC3CCC(C2)N3)cc1 [17c, N-(4-Decylphenyl)-N-methyl-3,8-diazabicyclo[3.2.1]octane-3-carboxamide Hydrochloride] | 18 ± 1
26 | CCCCCCCCCCc1ccc(C(=O)N[C@@H]2CCNC2)cc1.Cl [(R)-4c, (R)-4-Decyl-N-(pyrrolidin-3-yl)benzamide Hydrochloride] | 61 to 66
27 | CCCCCCCCCCc1ccc(C(=O)N[C@@H]2CCCNC2)cc1 [(R)-4e, (R)-4-Decyl-N-(piperidin-3-yl)benzamide Hydrochloride] | 73 ± 1
28 | CCCCCCCCCCc1ccc(NC(=O)O[C@@H]2CCNC2)cc1 [(R)-8b, (R)-Pyrrolidin-3-yl (4-Decylphenyl)carbamate Hydrochloride] | 68 ± 1
29 | CCCCCCCCCCc1ccc(NC(=O)O[C@@H]2CCCNC2)cc1 [(R)-8d, (R)-Piperidin-3-yl (4-Decylphenyl)carbamate Hydrochloride] | 45 ± 3
30 | CCCCCCCCCCc1ccc(NC(=O)N[C@@H]2CCNC2)cc1 [(R)-11c, (R)-1-(4-Decylphenyl)-3-(pyrrolidin-3-yl)urea Hydrochloride] | 49
31 | CCCCCCCCCCc1ccc(NC(=O)N[C@@H]2CCCNC2)cc1 [(R)-11e, (R)-1-(4-Decylphenyl)-3-(piperidin-3-yl)urea Hydrochloride] | 86
32 | CCCCCCCCCCc1ccc(NC(=O)N2CCN[C@H](C)C2)cc1 [(R)-11l, (R)-N-(4-Decylphenyl)-3-methylpiperazine-1-carboxamide Hydrochloride] | ≥ 80
33 | CCCCCCCCCCc1ccc(C(=O)N(C)[C@@H]2CCNC2)cc1 [(R)-13b, (R)-4-Decyl-N-methyl-N-(pyrrolidin-3-yl)benzamide Hydrochloride] | 21 ± 1

Results, then the molecule that gave them:

Row | inhibition at 1 µM [%] | Molecule
34 | 23 ± 1 | CCCCCCCCCCc1ccc(C(=S)NCCCN)cc1 [15a, N-(3-Aminopropyl)-4-decylbenzothioamide Hydrochloride]
35 | 13 ± 4 | CCCCCCCCCCc1ccc(N(C)C(=O)N2CCNCC2)cc1 [17a, N-(4-Decylphenyl)-N-methylpiperazine-1-carboxamide Hydrochloride]
36 | 24 ± 9 | CCCCCCCCCCc1ccc(N(C)C(=O)N2CC3CC2CN3)cc1 (stereo not drawn) [17b, N-(4-Decylphenyl)-N-methyl-2,5-diazabicyclo[2.2.1]heptane-2-carboxamide Hydrochloride]
37 | 43 ± 4 | CCCCCCCCCCc1ccc(NC(=O)N2CCN(C)CC2)cc1 [18a, N-(4-Decylphenyl)-4-methylpiperazine-1-carboxamide Hydrochloride]
38 | 5 ± 3 | CCCCCCCCCCc1ccc(NC(=O)N2CC[N+](C)(C)CC2)cc1 [18b, 4-((4-Decylphenyl)carbamoyl)-1,1-dimethylpiperazin-1-ium Iodide]

Same assay, conditions: HeLa, read-out: %Inhib. (Spns2 inhibition, percent decrease in S1P secretion relative to control)

Row | Molecule | inhibition at 1 µM [%]
39 | CCCCCCCCCCc1ccc(C(=O)NC2CNC2)cc1 [4b, N-(Azetidin-3-yl)-4-decylbenzamide 2,2,2-Trifluoroacetate] | 77 ± 1
